Source: ChEMBL document CHEMBL3400065, “N10,N11-di-alkylamine indolo[3,2-b]quinolines as hemozoin inhibitors: design, synthesis and antiplasmodial activity” (Bioorg Med Chem, 2015)
pIC50: −log10 of the molar value.

What was measured:
Plasmodium falciparum [1] = experiment: Resistance index, ratio of IC50 for ring stage Plasmodium falciparum W2 to IC50 for ring stage Plasmodium falciparum 3D7; type: functional
Plasmodium falciparum [2] = experiment: Resistance index, ratio of IC50 for ring stage Plasmodium falciparum Dd2 to IC50 for ring stage Plasmodium falciparum 3D7; type: functional
[3] = Cytotoxicity against human HepG2A16 cells by MTT assay; type: cell-based
[4] = Selectivity index, ratio of IC50 for human HepG2A16 cells to IC50 for ring stage Plasmodium falciparum W2; type: toxicity; details: read-out: Ratio IC50
Plasmodium falciparum [5] = experiment: Antimalarial activity against ring stage Plasmodium falciparum W2 infected with human red blood cells incubated for 48 hrs by flow cytometry; type: functional, organism-based; details: W2, 48 h
Plasmodium falciparum [6] = experiment: Antimalarial activity against ring stage Plasmodium falciparum Dd2 infected with human red blood cells incubated for 48 hrs by SYBR Green method; type: functional; details: Dd2, 48 h
Plasmodium falciparum [7] = experiment: Antimalarial activity against ring stage Plasmodium falciparum 3D7 infected with human red blood cells incubated for 48 hrs by SYBR Green method; type: functional, organism-based; details: 3D7, 48 h
[8] = n-octanol-phosphate buffer partition coefficient, log D in CH3CN-MeOH-phosphate buffer at pH 5.2 by HPLC-UV analysis; type: physicochemical
[9] = n-octanol-phosphate buffer partition coefficient, log D in CH3CN-MeOH-phosphate buffer at pH 7.4 by HPLC-UV analysis; type: physicochemical
[10] = Inhibition of beta-hematin formation after 5 to 6 hrs by pyridine-ferrichrome detergent-mediated assay; type: physicochemical
Plasmodium falciparum [11] = experiment: Ratio of chloroquine IC50 to compound IC50 for ring stage Plasmodium falciparum W2 infected with human red blood cells incubated for 48 hrs by flow cytometry; type: functional

CCN(CC)CCOc1cc(Cl)cc2nc3c4cc(Cl)ccc4n(CCN(CC)CC)c3cc12
Ratio IC50 (Plasmodium falciparum [1]): 0.3 | Ratio IC50 (Plasmodium falciparum [2]): 0.3 | pIC50 [3]: 5.28 | selectivity ratio [4]: 212

CCN(CC)CCNc1c2ccc(Cl)cc2nc2c3ccccc3n(CCN3CCCC3)c12
pIC50 (Plasmodium falciparum [5]): 6.80 | pIC50 (Plasmodium falciparum [6]): 6.14 | pIC50 (Plasmodium falciparum [7]): 6.18 | pIC50 [3]: 5.19 | selectivity ratio [4]: 40 | logD [8]: 0.05 | logD [9]: 3.2 | pIC50 [10]: 4.01

Clc1ccc2c(NCCN3CCCC3)c3c(nc2c1)c1ccccc1n3CCN1CCCC1
pIC50 (Plasmodium falciparum [5]): 7.00 | pIC50 (Plasmodium falciparum [6]): 6.20 | pIC50 (Plasmodium falciparum [7]): 6.33 | pIC50 [3]: 5.34 | selectivity ratio [4]: 46 | logD [8]: 0.34 | logD [9]: 2.7 | pIC50 [10]: 4.10

CCN(CC)CCCNc1c2ccc(Cl)cc2nc2c3ccccc3n(CCN3CCCC3)c12
pIC50 (Plasmodium falciparum [5]): 7.06 | pIC50 (Plasmodium falciparum [6]): 6.34 | pIC50 (Plasmodium falciparum [7]): 6.32 | pIC50 [3]: 5.35 | selectivity ratio [4]: 52 | logD [8]: -0.03 | logD [9]: 1.48 | pIC50 [10]: 4.66

Clc1ccc2c(NCCCN3CCCCC3)c3c(nc2c1)c1ccccc1n3CCN1CCCC1
pIC50 (Plasmodium falciparum [5]): 6.93 | pIC50 (Plasmodium falciparum [6]): 6.18 | pIC50 (Plasmodium falciparum [7]): 6.27 | pIC50 [3]: 5.37 | selectivity ratio [4]: 37 | logD [8]: -0.01 | logD [9]: 2.8 | pIC50 [10]: 4.37

Clc1ccc2c(NCCCN3CCOCC3)c3c(nc2c1)c1ccccc1n3CCN1CCCC1
pIC50 (Plasmodium falciparum [5]): 7.05 | pIC50 (Plasmodium falciparum [6]): 6.17 | pIC50 (Plasmodium falciparum [7]): 6.33 | pIC50 [3]: 5.07 | selectivity ratio [4]: 96 | logD [8]: 0.69 | pIC50 [10]: 4.48

CCN(CC)CCCC(C)Nc1c2ccc(Cl)cc2nc2c3ccccc3n(CCN3CCCC3)c12 (centres undefined)
pIC50 (Plasmodium falciparum [5]): 7.70 | pIC50 (Plasmodium falciparum [6]): 6.50 | pIC50 (Plasmodium falciparum [7]): 6.61 | pIC50 [3]: 5.60 | selectivity ratio [4]: 125 | logD [8]: 0.1 | logD [9]: 0.6 | pIC50 [10]: 5.10 | Ratio IC50 (Plasmodium falciparum [11]): 10

CCN(CC)CCNc1c2ccc(Cl)cc2nc2c3cc(Cl)ccc3n(CCN3CCCC3)c12
pIC50 (Plasmodium falciparum [5]): 7.14 | pIC50 (Plasmodium falciparum [6]): 6.67 | pIC50 (Plasmodium falciparum [7]): 6.61 | pIC50 [3]: 5.12 | selectivity ratio [4]: 103 | logD [8]: 1 | pIC50 [10]: 4.61

Clc1ccc2c(NCCN3CCCC3)c3c(nc2c1)c1cc(Cl)ccc1n3CCN1CCCC1
pIC50 (Plasmodium falciparum [5]): 6.90 | pIC50 (Plasmodium falciparum [6]): 6.34 | pIC50 (Plasmodium falciparum [7]): 6.43 | pIC50 [3]: 5.06 | selectivity ratio [4]: 70 | logD [8]: 1.05 | logD [9]: 3 | pIC50 [10]: 4.63

CCN(CC)CCCNc1c2ccc(Cl)cc2nc2c3cc(Cl)ccc3n(CCN3CCCC3)c12
pIC50 (Plasmodium falciparum [5]): 7.11 | pIC50 (Plasmodium falciparum [6]): 6.32 | pIC50 (Plasmodium falciparum [7]): 6.41 | pIC50 [3]: 5.22 | selectivity ratio [4]: 78 | logD [8]: 0.54 | logD [9]: 3.23 | pIC50 [10]: 4.69

Clc1ccc2c(NCCCN3CCCCC3)c3c(nc2c1)c1cc(Cl)ccc1n3CCN1CCCC1
pIC50 (Plasmodium falciparum [5]): 7.01 | pIC50 (Plasmodium falciparum [6]): 6.20 | pIC50 (Plasmodium falciparum [7]): 6.18 | pIC50 [3]: 5.24 | selectivity ratio [4]: 59 | logD [8]: 0.78 | logD [9]: 3.1 | pIC50 [10]: 4.87

Clc1ccc2c(NCCCN3CCOCC3)c3c(nc2c1)c1cc(Cl)ccc1n3CCN1CCCC1
pIC50 (Plasmodium falciparum [5]): 6.53 | pIC50 (Plasmodium falciparum [6]): 6.24 | pIC50 (Plasmodium falciparum [7]): 6.39 | pIC50 [3]: 4.92 | selectivity ratio [4]: 41 | logD [8]: 1.5 | pIC50 [10]: 4.76

CCN(CC)CCCC(C)Nc1c2ccc(Cl)cc2nc2c3cc(Cl)ccc3n(CCN3CCCC3)c12 (centres undefined)
pIC50 (Plasmodium falciparum [5]): 6.90 | pIC50 (Plasmodium falciparum [6]): 6.15 | pIC50 (Plasmodium falciparum [7]): 6.34 | pIC50 [3]: 5.19 | selectivity ratio [4]: 52 | logD [8]: 0.26 | pIC50 [10]: 4.97

CCN(CC)CCCNc1c2ccc(Cl)cc2nc2c3ccccc3n(CCN3CCOCC3)c12
pIC50 (Plasmodium falciparum [5]): 6.95 | pIC50 (Plasmodium falciparum [6]): 6.34 | pIC50 (Plasmodium falciparum [7]): 6.49 | pIC50 [3]: 5.34 | selectivity ratio [4]: 41 | logD [8]: 0.72 | pIC50 [10]: 4.57

CCN(CC)CCCNc1c2ccc(Cl)cc2nc2c3cc(Cl)ccc3n(CCN3CCOCC3)c12
pIC50 (Plasmodium falciparum [5]): 7.02 | pIC50 (Plasmodium falciparum [6]): 6.51 | pIC50 (Plasmodium falciparum [7]): 6.70 | pIC50 [3]: 5.33 | selectivity ratio [4]: 49 | logD [8]: 1.5 | pIC50 [10]: 4.68

CCN(CC)CCNc1c2ccc(Cl)cc2nc2c3cc(Cl)ccc3n(CCN3CCOCC3)c12
pIC50 (Plasmodium falciparum [5]): 6.78 | pIC50 (Plasmodium falciparum [6]): 6.17 | pIC50 (Plasmodium falciparum [7]): 6.29 | pIC50 [3]: 4.78 | selectivity ratio [4]: 103 | logD [8]: 1.79 | pIC50 [10]: 4.84

CCN(CC)CCCC(C)Nc1ccnc2cc(Cl)ccc12 (centres undefined) [CHLOROQUINE]
pIC50 [10]: 4.55
